Test results: US8669291B2, “Phenyl substituted cycloalkylamines as monoamine reuptake inhibitors” (Sunovion Pharmaceuticals Inc., priority 2007, dated 2014)

What was measured:
reserpinized rat = assay: reserpine-treated rat Parkinson's disease model; type: in vivo
Experimental: The effects of compound 4 alone and in combination with L-DOPA were evaluated in the reserpine-treated rat Parkinson's disease model. The method, which detects antiparkinson activity (reversal of motor deficits and akinesia), follows that described by Johnston et al. (Exp Neurol, 191, 243-250, 2005). Eighteen hours prior to behavioural testing, rats were lightly anaesthetized with isoflurane and reserpine (3 mg/kg, sc) was injected along with saline (50 ml/kg) to prevent dehydration.
Accelerating Rotarod: Performance on an accelerating rotarod was assessed using a 4-station rat rotarod (MedAssociates, USA). The speed of rotation of the rotarod was increased from 3.5 to 35 rpm over 5 minutes and the time for which the animal remained on the rod determined as the mean of three trials.
Catalepsy Test: Catalepsy was assessed by placing the rat's forepaws on top of a horizontal wooden rod suspended 6 cm above the bench surface. Time taken to remove both paws from the rod was recorded, up to a maximum of 120 seconds. Three trials per animal were conducted.
Open Field: Activity in an open field arena was assessed using automated activity monitors (Linton Instrumentation, UK). Rats were placed in the activity boxes and locomotor activity was recorded over a 240 minute period.
Drug Administration: For the monotherapy experiment, the effects of 5 different treatments were assessed: 1) vehicle (sterile water, PO), 2) 3 mg/kg compound 4 (PO), 3) 10 mg/kg compound 4 (PO), 4) 30 mg/kg compound 4 and 5) 80 mg/kg (IP) of the positive reference substance, L-DOPA (80 mg/kg). In the combination experiment, 5 different treatments were assessed: 1) compound 4 vehicle (PO)+L-DOPA vehicle (IP), 2) compound 4 (10 mg/kg, PO)+L-DOPA vehicle (IP), 3) compound 4 vehicle (PO)+L-DOPA (30 mg/kg, IP), 4) compound 4 (10 mg/kg, PO)+L-DOPA (30 mg/kg, IP) and 5) compound 4 vehicle (PO)+L-DOPA (80 mg/kg, IP). Treatments were given in a randomized fashion and each animal received all treatment conditions. Compound 4 was administered 60 minutes prior to behavioral assessment and L-DOPA was administered immediately prior to behavioral testing.

rats [1] = assay: Rat Forced Swim Test; type: in vivo; conditions: PO
From the text: The method, which detects antidepressant activity, followed that described by Porsolt et al (Eur. J. Pharmacol., 47: 379-391 (1978)) and modified by Lucki et al. (Psychopharm, 121: 66-72 (1995)). Rats forced to swim in a situation from which they cannot escape rapidly become immobile. Antidepressants decrease the duration of immobility. […] Selective NE reuptake inhibitors decrease immobility by increasing climbing behaviors whereas selective 5-HT reuptake inhibitors decrease immobility by increasing swimming behaviors.
Rats were individually placed in a cylinder (Height=40 cm; Diameter=20 cm) containing 22 cm water (25° C.) for 15 minutes on the first day of the experiment (Session 1) and were then put back in the water 24 hours later for a 5 minute test (Session 2). The sessions were videotaped and duration of immobility as well as swimming and climbing behaviors during the 5 minute test were measured. Twelve rats were tested in each group. The test was performed blind. Compounds were typically evaluated at 3 doses (1-30 mg/kg), administered orally 2 times: 24 hours and 30-60 minutes before the test (Session 2), and compared with a vehicle control group. Desipramine (20 mg/kg i.p.), administered under the same experimental conditions, was used as the positive reference substance.
Data were analyzed by one way analysis of variance (ANOVA) followed by post-hoc comparisons where appropriate. An effect will be considered significant if p<0.05. Data are represented as the mean and standard error to the mean (s.e.m.).

rats [2] = assay: Rat Locomotor Activity; type: in vivo; conditions: PO
Experimental: In order to ensure effects of the compounds on immobility time were not related to a general stimulant effect on baseline motor activity, locomotor activity was assessed using photocell monitored cages (Med-Associates Inc.). Each test chamber was equipped with infrared photocell beams to measure movement of the animals. Horizontal and vertical activity were measured.
Rats or mice were pretreated with vehicle or test compounds and placed back in home cage, following which they were individually placed in locomotor cages and activity was monitored in 1-5 minute intervals for intervals up to 60 min.
Data were analyzed by one way analysis of variance (ANOVA) followed by post-hoc comparisons where appropriate. An effect was considered significant if p<0.05. Data are represented as the mean and standard error to the mean (s.e.m).

DA Transporter (DAT) = biological target: T1, DA Transporter (DAT) (Mus musculus, UniProt Q61327); assay: ex vivo [3H] WIN 35428 binding to DAT sites in mouse brain; conditions: mice, 60 minutes after treatment
T1 construct: Striatal membranes (200 μL; equivalent to 2 mg wet weight of tissue/tube); from tissue; host or cells: striatum of C57BL/6 mice
T1 sequence (Q61327 whole entry): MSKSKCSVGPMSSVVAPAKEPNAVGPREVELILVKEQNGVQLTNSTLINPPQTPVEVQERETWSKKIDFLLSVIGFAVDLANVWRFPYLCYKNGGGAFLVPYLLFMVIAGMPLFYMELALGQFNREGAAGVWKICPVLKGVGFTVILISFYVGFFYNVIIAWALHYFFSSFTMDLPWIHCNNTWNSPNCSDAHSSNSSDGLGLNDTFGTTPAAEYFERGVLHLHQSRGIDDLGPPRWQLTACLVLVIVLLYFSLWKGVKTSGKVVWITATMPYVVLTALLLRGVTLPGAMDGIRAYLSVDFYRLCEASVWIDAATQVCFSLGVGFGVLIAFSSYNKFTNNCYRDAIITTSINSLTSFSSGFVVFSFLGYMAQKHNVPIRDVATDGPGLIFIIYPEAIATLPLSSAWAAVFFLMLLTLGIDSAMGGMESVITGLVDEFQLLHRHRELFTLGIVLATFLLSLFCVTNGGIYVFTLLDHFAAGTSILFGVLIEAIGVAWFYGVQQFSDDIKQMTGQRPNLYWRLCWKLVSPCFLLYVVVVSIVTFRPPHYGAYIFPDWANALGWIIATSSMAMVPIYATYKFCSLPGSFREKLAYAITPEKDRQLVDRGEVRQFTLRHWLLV
Experimental: Receptor occupancy of central noradrenaline (NA), 5-HT and dopamine (DA) transporter sites following peripheral administration of compounds was determined using [^3H] nisoxetine, [^3H] citalopram and [^3H] WIN 35428 binding, respectively. Liquid scintillation counting was used to quantify the radioactivity.
C57BL/6 mice (25-30 g) were dosed orally with either vehicle or compound at 4 dose levels. Mice were sacrificed 60 minutes after treatment. Whole brains were removed and cortex and striata dissected out before being frozen on dry ice. The brain tissue was stored at −20° C. until the day of the assay. The cortex from each hemisphere was frozen separately. One was used to determine occupancy of NA transporter sites and the other occupancy of 5-HT transporter sites. Striatum was used to determine occupancy of DA transporter sites.
Frontal cortex from each hemisphere or striata was homogenized individually in ice-cold assay buffer using a tight fitting glass/Teflon homogenizer and used immediately in the binding assay.
Striatal membranes (200 μL; equivalent to 2 mg wet weight of tissue/tube) were incubated with 25 μL of [^3H] WIN 35428 at a single concentration of 24 nM and either 25 μL of buffer (total binding) or 25 μL of GBR12935 (1 μM; non-specific binding) for 2 h at 4° C. For each animal, two tubes were used for the determination of total binding and two tubes for the determination of non-specific binding.
Membrane bound radioactivity was recovered by filtration under vacuum through Skatron 11731 filters, presoaked in 0.5% PEI, using a Skatron cell harvester. Filters were rapidly washed with ice-cold phosphate buffer and radioactivity (dpm) was determined by liquid scintillation counting (1 mL Packard MV Gold scintillator).
A value for specific binding (dpm) was generated by the subtraction of mean non-specific binding (dpm) from mean total binding (dpm) for each animal. Data are presented as mean specific binding (dpm) and as a percentage of the vehicle-treated control taken as 100%.

CNC[C@@H]1CCCC[C@@]1(O)c1ccc(Cl)c(Cl)c1 [Compound 4]
effects of combination with low dose L-DOPA compared with higher L-DOPA dose (80 mg/kg), rotarod (reserpinized rat; 10 mg/kg, PO + L-DOPA 30 mg/kg, FIG. 5): equal in magnitude and of longer duration
baseline locomotor activity (open field) performance (reserpinized rat; alone, 3-30 mg/kg, PO, FIG. 2): dose-dependently improved performance
rotarod performance (reserpinized rat; alone, 3-30 mg/kg, PO, FIG. 3): dose-dependently improved performance
catalepsy performance (reserpinized rat; alone, 3-30 mg/kg, PO, FIG. 4): dose-dependently improved performance

CN(C)C[C@@H]1CCCC[C@@]1(O)c1ccc(Cl)c(Cl)c1 (single isomer, unassigned) [Compound 2, cis-1-(3,4-dichlorophenyl)-2-((dimethylamino)methyl)cyclohexanol]
Rat Forced Swim (Means ± S.E.M.) Climbing (rats [1]; 1 mg/kg): ## (11-20 (##))
Rat Forced Swim (Means ± S.E.M.) Immobility (rats [1]; 1 mg/kg): +++ (>41 (+++))
Rat Forced Swim (Means ± S.E.M.) Swimming (rats [1]; 1 mg/kg): * (1-5 (*))
Rat Forced Swim (Means ± S.E.M.) Climbing (rats [1]; 3 mg/kg): # (1-10 (#))
Rat Forced Swim (Means ± S.E.M.) Immobility (rats [1]; 3 mg/kg): +++ (>41 (+++))
Rat Forced Swim (Means ± S.E.M.) Swimming (rats [1]; 3 mg/kg): * (1-5 (*))
Rat Forced Swim (Means ± S.E.M.) Climbing (rats [1]; 10 mg/kg): ### (>21 (###))
Rat Forced Swim (Means ± S.E.M.) Immobility (rats [1]; 10 mg/kg): + (1-20 (+))
Rat Forced Swim (Means ± S.E.M.) Swimming (rats [1]; 10 mg/kg): ** (6-9 (**))
Rat Locomotor Activity Total Distance Traveled ± S.E.M. (rats [2]; 1 mg/kg): ° (100-2500 (°))
Rat Locomotor Activity Total Distance Traveled ± S.E.M. (rats [2]; 3 mg/kg): ° (100-2500 (°))
Rat Locomotor Activity Total Distance Traveled ± S.E.M. (rats [2]; 10 mg/kg): °°° (>5001 (°°°))
% Transporter Occupancy, DAT (DA Transporter (DAT); 1 mg/kg PO): 15%
% Transporter Occupancy, DAT (DA Transporter (DAT); 3 mg/kg PO): 50%
% Transporter Occupancy, DAT (DA Transporter (DAT); 10 mg/kg PO): 79%
% Transporter Occupancy, DAT (DA Transporter (DAT); 30 mg/kg PO): 90%
